One assay concerns the target T1, PI3Kδ (Homo sapiens, UniProt O00329).
T1 construct: Full-length N-terminal; GST (N); host or cells: SF9 cells (baculovirus)
The experiment in a line: Inhibition of PI3K isoforms: PI3Kδ (microfluidic electrophoresis kinase assay, PIP2/PS substrate). The settings on record: p110δ/p85α, ATP 90 μM; read-out: PI3Kd IC50. Format: biochemical. As to the method:
The kinase substrate was prepared by mixing and sonicating fluorescently-labeled phosphatidylinositol 4,5-phosphate (PIP2) with phospho-L-[…]:20 ratio in 50 mM HEPES buffer pH7.5. The kinase reactions were assembled in 384-well plates (Greiner) in a total volume of […] as follows. The kinase proteins were pre-diluted in an assay buffer comprising 50 mM HEPES, pH 7.5, 0.012% CHAPS, 1 mM DTT, 10 mM Na3VaO4, 10 mM 3-GP, 3 mM MgCl2, and 40 mM NaCl2, and dispensed into a 384-well plate (10 μL per well). Test compounds were serially pre-diluted in DMSO and added to the protein samples by acoustic dispensing (Labcyte Echo). The concentration of DMSO was equalized to 1% in all samples. All test compounds were tested at 12 concentrations. The control samples (0%-inhibition in the absence of inhibitor, DMSO only) and 100%-inhibition (in the absence of enzyme) were assembled in replicates of four and were used to calculate %-inhibition in the presence of test compounds. The reactions were initiated by addition of 10 μL of the PIP2/PS substrate supplemented with ATP. The final concentration of enzymes was 0.5 nM (PI3Kα), 1 nM (PI3Kβ), 10 nM (PI3Kγ), and 0.25 nM (PI3Kδ). The final concentration of ATP was 90 μM (PI3Kα), 60 μM (PI3Kβ), 100 μM (PI3Kγ), and 90 μM (PI3Kδ). The final concentration of PIP2/PS substrate was 1 μM (PIP2). The kinase reactions were allowed to proceed for 3 h at room temperature. Following incubation, the reactions were quenched by addition of 50 μL of termination buffer (100 mM HEPES, pH 7.5, 0.01% Triton X-100, 20 mM EDTA). Terminated plates were analyzed on a microfluidic electrophoresis instrument (Caliper LabChip® 3000, Caliper Life Sciences/Perkin Elmer). The change in the relative fluorescence intensity of the PI(4,5)P substrate and PI(3,4,5)P product peaks was measured. The activity in each test sample was determined as the product to sum ratio (PSR): P/(S+P), where P is the peak height of the product, and S is the peak height of the substrate. Percent inhibition (Pinh) was determined using the following equation: Pinh=(PSR0% inh-PSRcompound)/(PSR0% inh-PSR100% inh)*100 in which PSRcompound is the product/sum ratio in the presence of compound, PSR0% inh is the product/sum ratio in the absence of compound, and the PSR100% inh is the product/sum ratio in the absence of the enzyme. […] (Pinh versus compound concentration) were fitted by a four-parameter sigmoid dose-response model using XLfit software (IDBS).

For assay [1], the system named is ALS patient (SOD1 A4V) iPSC derived motor neurons. Briefly: iPSC MN Survival assay (GFP imaging, six days, hazard ratio from Cox regression). The class given is cell-based. The settings on record: Homo sapiens, survival rescue, read-out: C9 iPSC MN Significant survival rescue EC50.
Assay [2] concerns HEK 293T transfected with plasmids containing TDP-43 Q331K mutation. Briefly: HEK/TDP Survival assay (Cell-Titer-Glo, 48 hrs, maximal effect of rescue). The class given is cell-based. The settings on record: Homo sapiens, HEK 293T with TDP-43 Q331K, (n) in brackets. Summed up:
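Cells transfected with TDP-43 Q331K, treated 48 h at eight concentrations (6 replicates); ATP read by CellTiter-Glo luminescence versus untreated wells on each plate. Effect per dose as Hedge's g with Empirical Bayes false-sign-rate correction (signed log s >3 = hit); value is maximal rescue from the dose-response curve.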

Each structure is given as a SMILES string. Structures can show the parent of a compound that is named as a salt.

T1 sequence (O00329 whole entry): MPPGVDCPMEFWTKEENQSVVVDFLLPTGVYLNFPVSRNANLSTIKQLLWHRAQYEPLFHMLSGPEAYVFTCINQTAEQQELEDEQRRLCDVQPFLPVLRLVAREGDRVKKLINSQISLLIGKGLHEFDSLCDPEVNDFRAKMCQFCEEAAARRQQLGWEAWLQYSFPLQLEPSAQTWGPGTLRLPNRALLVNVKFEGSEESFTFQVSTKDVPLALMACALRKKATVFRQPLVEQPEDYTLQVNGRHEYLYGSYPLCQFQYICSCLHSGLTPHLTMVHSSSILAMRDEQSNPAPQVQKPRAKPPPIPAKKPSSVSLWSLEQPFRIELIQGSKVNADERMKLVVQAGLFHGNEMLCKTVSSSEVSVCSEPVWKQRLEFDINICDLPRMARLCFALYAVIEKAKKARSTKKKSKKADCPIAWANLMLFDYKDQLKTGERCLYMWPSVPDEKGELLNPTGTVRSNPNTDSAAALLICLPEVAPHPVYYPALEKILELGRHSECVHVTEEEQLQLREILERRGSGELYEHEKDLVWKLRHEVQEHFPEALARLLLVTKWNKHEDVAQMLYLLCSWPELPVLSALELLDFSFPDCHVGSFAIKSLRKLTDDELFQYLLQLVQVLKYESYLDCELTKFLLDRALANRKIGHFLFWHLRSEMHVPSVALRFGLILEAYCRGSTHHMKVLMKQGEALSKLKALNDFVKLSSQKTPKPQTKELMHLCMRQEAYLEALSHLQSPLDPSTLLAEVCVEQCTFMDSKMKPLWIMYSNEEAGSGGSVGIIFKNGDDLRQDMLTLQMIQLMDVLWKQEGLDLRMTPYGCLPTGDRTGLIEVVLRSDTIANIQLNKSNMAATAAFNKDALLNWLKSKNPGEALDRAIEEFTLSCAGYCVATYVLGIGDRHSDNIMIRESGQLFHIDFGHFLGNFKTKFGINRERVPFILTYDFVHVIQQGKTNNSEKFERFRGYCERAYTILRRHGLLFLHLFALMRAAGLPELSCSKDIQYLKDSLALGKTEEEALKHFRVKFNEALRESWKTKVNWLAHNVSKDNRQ
T1 sequence (P27986 whole entry partner): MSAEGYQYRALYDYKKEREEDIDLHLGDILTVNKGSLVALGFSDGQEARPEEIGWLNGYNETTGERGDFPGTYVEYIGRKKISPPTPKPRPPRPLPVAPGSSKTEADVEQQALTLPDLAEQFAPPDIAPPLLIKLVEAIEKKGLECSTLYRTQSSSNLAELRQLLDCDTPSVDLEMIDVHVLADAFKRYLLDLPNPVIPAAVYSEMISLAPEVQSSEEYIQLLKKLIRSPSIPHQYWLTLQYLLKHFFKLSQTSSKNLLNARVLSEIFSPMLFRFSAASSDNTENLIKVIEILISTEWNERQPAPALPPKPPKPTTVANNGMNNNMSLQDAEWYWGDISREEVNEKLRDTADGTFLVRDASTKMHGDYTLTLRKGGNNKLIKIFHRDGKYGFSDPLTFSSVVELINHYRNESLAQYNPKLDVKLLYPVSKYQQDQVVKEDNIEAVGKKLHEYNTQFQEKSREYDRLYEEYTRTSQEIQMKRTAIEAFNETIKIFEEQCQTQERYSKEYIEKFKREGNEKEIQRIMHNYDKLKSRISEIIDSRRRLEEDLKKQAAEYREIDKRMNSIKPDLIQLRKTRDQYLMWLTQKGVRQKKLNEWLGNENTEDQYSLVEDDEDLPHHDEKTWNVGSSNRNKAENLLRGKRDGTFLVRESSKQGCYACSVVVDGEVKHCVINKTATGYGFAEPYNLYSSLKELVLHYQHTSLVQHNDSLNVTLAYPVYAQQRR

`c1ccc(-c2cc(Nc3nc(N4CCOCC4)c4oc(-c5ccncc5)cc4n3)[nH]n2)cc1` [Compound 1, 4-morpholino-N-(3-phenyl-1H-pyrazol-5-yl)-6-(pyridin-4-yl)furo[3,2-d]pyrimidin-2-amine hydrochloride]: at PI3Kδ, the IC50 amounted to 2710 nM. Moreover, the EC50 was found to be 1000 nM in assay [1] and 14 nM in assay [2].

The values are drawn from patent US20230146395A1, “Substituted Pyrimidines and Uses Thereof” (Verge Analytics, Inc., priority 2020, published 2023).
